The conditions of data set [1]: 25.0° C., 0.10M KNO3; from Lima et al. 2012; cited from earlier work.
The conditions of data set [2]: overview table; copper chelates of prior-art ligands; cited from earlier work.
Data set [3] is described as follows: Potentiometric titrations: stability constants and pM of Zn^2+ complexes. It is filed as physicochemical. To be noted: for c) inertness vs Zn: pZn: overview table, calculated pM. As to the method:
Equipment and work conditions. The potentiometric setup has been described in Roger, M. et al. Inorg. Chem. 2013, 52, 5246-5259. The titrant was a KOH solution prepared at ca. 0.1 M from a commercial ampoule of analytical grade, and its accurate concentration was obtained by application of the Gran's method upon titration of a standard HNO3 solution (Rossotti, F. J. and Rossotti, H. J. J. Chem. Educ. 1965, 42, 375-378). Ligand solutions were prepared at about 2.0×10^−3 M, and the Cu^2+ and Zn^2+ solutions at ca. 0.05 M from analytical grade nitrate salts and standardized by complexometric titrations with H4edta (ethylenediaminetetraacetic acid). Sample solutions for titration contained approximately 0.04 mmol of ligand in a volume of 30 mL where the ionic strength was kept at 0.10 M using KNO3 as background electrolyte. Metal cations were added at 0.9 equiv. of the ligand amount in complexation titrations. Batch titrations were prepared in a similar way but with each titration point corresponding to 1/10 of the amount of a conventional titration sample. Batch titration points were incubated in tightly closed vials at 25° C. until potential measurements attained complete stability, which happened within a week.
Measurements. All measurements were carried out at 25.0±0.1° C. under inert atmosphere. The electromotive force of the sample solutions was measured after calibration of the electrodes by titration of a standard HNO3 solution at 2.0×10^−3 M in the work conditions. The [H^+] of the solutions was determined by measurement of the electromotive force of the cell, E=E^o′+Q log [H^+]+Ej. The term pH is defined as −log [H^+]. E^o′ and Q were determined from the acid region of the calibration curves. Deviations from the Nernst law at very low pH (pH<2.5) were corrected with the VLpH software (Calibration software from the maker of Hyperquad available for free at http://www.hyperquad.co.uk/), which performs a [H^+] correction based on a very low pH calibration procedure. The liquid-junction potential, Ej, was otherwise found to be negligible for pH >2.5 under the experimental conditions used. […] Each titration consisted of 80-100 equilibrium points in the range of pH 2.5-11.5 (or 1.5-11.5 for Cu^2+ complexations), and at least two replicate titrations were performed for each particular system.
(§1) Calculations. The potentiometric data were refined with the Hyperquad software, and speciation diagrams were plotted using the HySS software. The overall equilibrium constants βi^H and βMmHhL1 are defined by βMmHhL1=[MmHhLl]/[M]^m[H]^h[L]^l (βi^H=[HhLl]/[H]^h[L]^l and βML-1L=βML(OH)×Kw). Differences in log units between the values of protonated (or hydrolysed) and non-protonated constants provide the stepwise (log K) reaction constants (being KMmHhL1=[MmHhLl]/[MmHh-1Ll][H]). The errors quoted are the standard deviations calculated by the fitting program from all the experimental data for each system.
(§2) The stability constants of the complexes formed by Hcb-te1pa with Cu^2+ and Zn^2+ were determined by potentiometric titrations in aqueous solution at 25.0° C. in 0.10 M KNO3 ionic strength (Table 2).
The equilibrium of formation of the copper(II) and especially the zinc(II) complexes is slow in the acidic pH range. In the case of Cu^2+, the complexation is almost complete from low pH but relatively slow up to pH=4. To overcome this double problem, conventional titrations were performed at pH values below 2 in order to observe a significant percentage of free metal ion (at least 18%) and thus allow for determination of the corresponding stability constant, while giving the solution enough time to reach equilibrium prior to the start of the titration. During titrations, each experimental point included a supplementary equilibration time in order to yield fully stabilized measurements. […]

For data set [4] the following is noted: cited from earlier work; for c) inertness vs Zn: log K[ZnL]: overview table, ligands of the prior art (** Delgado 1982, *** Chaves 1992).
For data set [5] the following is noted: cited from earlier work; for b) thermodynamic stability: log K[CuL]: overview table, ligands of the prior art (* estimation by Anderson and Ferdani 2009).
The conditions of data set [6]: cited from earlier work; for half-life (t1/2), acid-assisted dissociation of copper(II) complex: literature value; for d) kinetic inertness: half-life (t1/2): copper chelates of prior-art ligands.
Data set [7] is described as follows: Potentiometric titrations: stability constants and pM of Cu^2+ complexes. In kind it is physicochemical. The note with it: for b) thermodynamic stability: pCu: overview table, calculated pM. As for the experimental part: Equipment and work conditions. The potentiometric setup has been described in Roger, M. et al. Inorg. […] Ligand solutions were prepared at about 2.0×10^−3 M, and the Cu^2+ and Zn^2+ solutions at ca. 0.05 M from analytical grade nitrate salts and standardized by complexometric titrations with H4edta (ethylenediaminetetraacetic acid). Sample solutions for titration contained approximately 0.04 mmol of ligand in a volume of 30 mL where the ionic strength was kept at 0.10 M using KNO3 as background electrolyte. Metal cations were added at 0.9 equiv. of the ligand amount in complexation titrations. Batch titrations were prepared in a similar way but with each titration point corresponding to 1/10 of the amount of a conventional titration sample.
Measurements. All measurements were carried out at 25.0±0.1° C. under inert atmosphere. The electromotive force of the sample solutions was measured after calibration of the electrodes by titration of a standard HNO3 solution at 2.0×10^−3 M in the work conditions. The [H^+] of the solutions was determined by measurement of the electromotive force of the cell, E=E^o′+Q log [H^+]+Ej. The term pH is defined as −log [H^+]. E^o′ and Q were determined from the acid region of the calibration curves. Deviations from the Nernst law at very low pH (pH<2.5) were corrected with the VLpH software (Calibration software from the maker of Hyperquad available for free at http://www.hyperquad.co.uk/), which performs a [H^+] correction based on a very low pH calibration procedure.
as §1, §2
During titrations, each experimental point included a supplementary equilibration time in order to yield fully stabilized measurements. […] For this reason, batch titrations were prepared in the range of pH=4-6 and were left to equilibrate until full stabilization, while conventional titrations were used for the remaining pH regions.
For a correct comparison of the thermodynamic stability of the complexes of Hcb-te1pa with the corresponding values of other ligands from the literature, the pM values that take into account the variable basicity properties of different ligands were also calculated (Table 3). […] The thermodynamic stability is not the only important criterion to determine the efficiency of metal complexation because, depending on the application, other factors such as kinetic inertness or in vivo stability can be more important.

For data set [8] the following is noted: overview table, cited from earlier work; for a) metallation kinetics: time required for complete (>99%) Cu complexation (in words): ligands of the prior art.
The mark [9] stands for this setting: pH = 7.4, 100% excess of ligand, [M^2+]tot = 1 × 10^−5 M.
Setting [10] is: 25.0° C., I = 0.10M KNO3, from Lima et al. 2012.

Where two headings read alike, the source gives them in different places.

As for `O=C(O)c1cccc(CN2CCCNCCNCCCNCC2)n1` [Hte1pa], in data set [1], the “log βi^H, L + 2 H^+ ⇌ H2L” value was 21.66 log units; the “log βi^H, L + 3 H^+ ⇌ H3L” value was 24.37 log units; the “log βi^H, L + 4 H^+ ⇌ H4L” value is reported as 26.07 log units; the “log βi^H, L + H^+ ⇌ HL” value was 11.55 log units. Moreover, in data set [2], the “e) stability upon reduction, Cu(II) -> Cu (I): reduction potential” value is recorded as −1.05 V and the “e) stability upon reduction, Cu(II) -> Cu (I): reversibility” value is given as “quasi-reversible”. Moreover, in data set [3], the “c) inertness vs Zn: pZn” value is listed as 12.00. The “Calculated pM, Zn^2+” value in data set [3] (setting [9]) is given as 12.00. Besides, in data set [4] (setting [10]), the “log KMLHh, ZnL + H^+ ⇌ ZnHL” value is 2.52 log units; the “log KMLHh, ZnLOH + H^+ ⇌ ZnL” value was 11.02 log units; the “log KMLHh, Zn^2+ + L ⇌ ZnL” value is recorded as 18.86 log units; the “log βMLHh, Zn^2+ + H^+ + L ⇌ ZnHL” value is given as 21.38 log units. For the same compound, in data set [4] (setting [10]), the “log βMLHh, Zn^2+ + L ⇌ ZnL” value is given as 18.86 log units and the “log βMLHh, Zn^2+ + L ⇌ ZnLOH + H^+” value is on record as 7.84 log units. In addition, the “c) inertness vs Zn: log K[ZnL]” value in data set [4] is on record as 18.86. In data set [5] (setting [10]), the “log KMLHh, CuL + H^+ ⇌ CuHL” value is on record as 2.17 log units; the “log KMLHh, CuLOH + H^+ ⇌ CuL” value is given as 11.15 log units; the “log KMLHh, Cu^2+ + L ⇌ CuL” value was 25.5 log units; the “log βMLHh, Cu^2+ + H^+ + L ⇌ CuHL” value was 27.67 log units. In data set [5] (setting [10]), the “log βMLHh, Cu^2+ + L ⇌ CuL” value is recorded as 25.5 log units and the “log βMLHh, Cu^2+ + L ⇌ CuLOH + H^+” value is 14.35 log units. Also, in data set [5], the “b) thermodynamic stability: log K[CuL]” value is listed as 25.50. In data set [6] (1M HCl, 25° C.), the “half-life (t1/2), acid-assisted dissociation of copper(II) complex” value (from here on “half-life … of copper(II) complex”) was 0.533 h. Moreover, in data set [6] (5M HClO4, 25° C.), the “half-life … of copper(II) complex” value is 2.4 h. The “d) kinetic inertness: half-life (t1/2)” value in data set [6] (HClO4, 5M, 25° C.) is given as 144 min. The “b) thermodynamic stability: pCu” value in data set [7] is given as 18.64. Moreover, the “Calculated pM, Cu^2+” value in data set [7] (setting [9]) is recorded as 18.64. Moreover, the “a) metallation kinetics: time required for complete (>99%) Cu complexation” value in data set [8] (ligand of the prior art) was 3 min.

For the compound `O=C(O)CN1CCN2CCN(CC1)CCN(CC(=O)O)CC2` [cb-do2a], in data set [2], the “e) stability upon reduction, Cu(II) -> Cu (I): reduction potential” value is −0.72 V and the “e) stability upon reduction, Cu(II) -> Cu (I): reversibility” value is on record as “irreversible”. The “half-life … of copper(II) complex” value in data set [6] (5M HCl, 30° C.) is below 0.033 h. The “d) kinetic inertness: half-life (t1/2)” value in data set [6] (HCl, 5M, 30° C.) is below 2 min. For the same compound, the “d) kinetic inertness: half-life (t1/2)” value in data set [6] (HCl, 5M, 90° C.) is given as below 3 min. For the same compound, in data set [8], the “a) metallation kinetics: time required for complete (>99%) Cu complexation (in words)” value is given as “too slow”.

As to `O=C(O)CN1CCCN2CCN(CCCN(CC(=O)O)CC2)CC1` [cb-te2a], in data set [2], the “e) stability upon reduction, Cu(II) -> Cu (I): reduction potential” value is recorded as −0.88 V and the “e) stability upon reduction, Cu(II) -> Cu (I): reversibility” value was “quasi-reversible”. The “b) thermodynamic stability: log K[CuL]” value in data set [5] is recorded as 27.10*. Also, the “half-life … of copper(II) complex” value in data set [6] (5M HCl, 90° C.) is 154 h. Also, the “d) kinetic inertness: half-life (t1/2)” value in data set [6] (HCl, 5M, 90° C.) was 9240 min. Further, in data set [8], the “a) metallation kinetics: time required for complete (>99%) Cu complexation (in words)” value is recorded as “too slow”.

Turning to `O=C(O)CN1CCN(CC(=O)O)CCN(CC(=O)O)CCN(CC(=O)O)CC1` [dota, 1,4,7,10-tetraazacyclododecane-1,4,7,10-tetraacetic acid], in data set [2], the “e) stability upon reduction, Cu(II) -> Cu (I): reduction potential” value is −0.74 V and the “e) stability upon reduction, Cu(II) -> Cu (I): reversibility” value is recorded as “irreversible”. In addition, the “c) inertness vs Zn: pZn” value in data set [3] is recorded as 15.01. Also, the “c) inertness vs Zn: log K[ZnL]” value in data set [4] is given as 21.01***. In data set [5], the “b) thermodynamic stability: log K[CuL]” value was 22.21. Further, in data set [6] (HCl, 5M, 90° C.), the “d) kinetic inertness: half-life (t1/2)” value is listed as below 1 min. Further, the “d) kinetic inertness: half-life (t1/2)” value in data set [6] (HClO4, 5M, 25° C.) was “about 5 min”. Moreover, the “b) thermodynamic stability: pCu” value in data set [7] is 15.19. The “a) metallation kinetics: time required for complete (>99%) Cu complexation (in words)” value in data set [8] is “fast”.

Consider `O=C(O)CN1CCCN(CC(=O)O)CCN(CC(=O)O)CCCN(CC(=O)O)CC1` [teta], for which, in data set [2], the “e) stability upon reduction, Cu(II) -> Cu (I): reduction potential” value is −0.98 V. Besides, the “e) stability upon reduction, Cu(II) -> Cu (I): reversibility” value in data set [2] is recorded as “irreversible”. Further, the “c) inertness vs Zn: pZn” value in data set [3] is on record as 10.08. For the same compound, the “c) inertness vs Zn: log K[ZnL]” value in data set [4] is recorded as 15.81**. In addition, in data set [5], the “b) thermodynamic stability: log K[CuL]” value is reported as 21.60. Moreover, the “d) kinetic inertness: half-life (t1/2)” value in data set [6] (HCl, 5M, 30° C.) was 5040 min; in data set [6] (HCl, 5M, 90° C.) it was 4.5 min; in data set [6] (HClO4, 5M, 25° C.) it was “about 8 min”. In addition, the “b) thermodynamic stability: pCu” value in data set [7] is given as 15.19. In addition, the “a) metallation kinetics: time required for complete (>99%) Cu complexation (in words)” value in data set [8] is listed as “fast”.

Source of the values: patent US10434199B2, “Picolinate cross-bridged cyclams, chelates with metallic cations and use thereof” (UNIVERSITÉ DE BRETAGNE OCCIDENTALE, priority 2013, dated 2019).
